Measured values: US12384753B2, “17-beta-hydroxysteroid dehydrogenase type 13 inhibitors and methods of use thereof” (Enanta Pharmaceuticals, Inc., priority 2021, dated 2025)
pIC50: −log10 of the molar value.

Molecular target: Recombinant human HSD17B13 (Homo sapiens (Human), UniProt Q7Z5P4)
Test: HSD17B13 rapid-fire mass spectrometry assay (RF/MS assay)
Format: biochemical
Conditions: inhibition of HSD17B13; LTB4 10 μM, NAD+ 0.5 mM, RT 3 h; IC50 ranges A-E
In short: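 Product 12-oxo-LTB4 and substrate LTB4 quantified by RapidFire triple-quad MS in negative mode, giving percent conversion. Reaction: 80 nM recombinant hHSD17B13, 10 μM LTB4, 0.5 mM NAD+, compound up to 100 μM, pH 7.5, RT, 3 h. Variable-slope fit gave IC50; run in duplicate.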

Sequence of Recombinant human HSD17B13 (Q7Z5P4 20-300): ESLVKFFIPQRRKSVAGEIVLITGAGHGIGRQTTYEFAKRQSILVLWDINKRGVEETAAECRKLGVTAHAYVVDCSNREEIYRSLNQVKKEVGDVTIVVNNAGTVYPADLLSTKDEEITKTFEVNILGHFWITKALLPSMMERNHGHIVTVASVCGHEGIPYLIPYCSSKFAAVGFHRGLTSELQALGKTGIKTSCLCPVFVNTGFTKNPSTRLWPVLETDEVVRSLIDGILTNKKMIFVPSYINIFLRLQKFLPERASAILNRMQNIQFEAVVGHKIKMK

Row | SMILES | pIC50
1 | COc1cc(C(=O)O)c(F)cc1NS(=O)(=O)c1csc(-c2ccc(C(F)(F)F)nc2C2=CCC(C)(C)CC2)n1 [Example 561] | 4.00 to 6.00
2 | COc1cc(C(=O)O)c(F)cc1NS(=O)(=O)c1csc(-c2ccc(C3=CCC(C)(C)CC3)c(F)c2C)n1 [Example 562] | 6.30 to 7.00
3 | CCc1cc(C2=CCC(C)(C)CC2)ccc1-c1nc(S(=O)(=O)Nc2cc(F)c(C(=O)O)cc2OC)cs1 [Example 563] | > 7.00
4 | COc1cc(C(=O)O)c(F)cc1NS(=O)(=O)c1csc(-c2ccc(C3=CCC(C)(C)CC3)c(OC(C)C)c2F)n1 [Example 564] | 6.30 to 7.00
5 | COc1cc(C(=O)O)c(F)cc1NS(=O)(=O)c1csc(-c2ccc(C3=CCC(C)(C)CC3)cn2)n1 [Example 565] | 6.30 to 7.00
6 | COc1cc(C(=O)O)c(F)cc1NS(=O)(=O)c1csc(-c2ccc(C3CCC(C)(C)CC3)c(F)c2C)n1 [Example 566] | > 7.00
7 | COc1cc(C(=O)O)c(F)cc1NS(=O)(=O)c1csc(-c2ccc(C3CCC(C)(C)CC3)c(OC(C)C)c2F)n1 [Example 567] | > 7.00
8 | CCOc1c(C2=CCC(C)(C)CC2)ccc(-c2nc(S(=O)(=O)Nc3cc(F)c(C(=O)O)cc3OC)cs2)c1F [Example 568] | > 7.00
9 | COc1cc(C(=O)O)c(F)cc1NS(=O)(=O)c1csc(-c2ccc(C3=CCC(C)(C)CC3)c(C)c2F)n1 [Example 569] | > 7.00
10 | CCOc1c(C2CCC(C)(C)CC2)ccc(-c2nc(S(=O)(=O)Nc3cc(F)c(C(=O)O)cc3OC)cs2)c1F [Example 570] | > 7.00
11 | COc1cc(C(=O)O)c(F)cc1NS(=O)(=O)c1csc(-c2ccc(C3CCC(C)(C)CC3)c(C)c2F)n1 [Example 571] | > 7.00
12 | CCc1cc(C2CCC(C)(C)CC2)ccc1-c1nc(S(=O)(=O)Nc2cc(F)c(C(=O)O)cc2OC)cs1 [Example 572] | > 7.00
13 | COc1cc(C(=O)O)c(F)cc1NS(=O)(=O)c1csc(-c2ccc(C3CCC(C)(C)CC3)cn2)n1 [Example 573] | 6.30 to 7.00
14 | CC[C@H]1CC[C@H](c2ccc(-c3nc(S(=O)(=O)Nc4cc5c(cc4OC)C(=O)NC5)cs3)cc2)CC1 [Example 574] | 4.00 to 6.00
15 | CC[C@H]1CC[C@H](c2ccc(-c3nc(S(=O)(=O)Nc4cc5nc[nH]c(=O)c5cc4OC)cs3)cc2)CC1 [Example 575] | 4.00 to 6.00
16 | CCCOc1c(C2=CCC(C)(C)CC2)ccc(-c2nc(S(=O)(=O)Nc3cc(F)c(C(=O)O)cc3OC)cs2)c1F [Example 576] | 6.30 to 7.00
17 | COCCOc1c(C2=CCC(C)(C)CC2)ccc(-c2nc(S(=O)(=O)Nc3cc(F)c(C(=O)O)cc3OC)cs2)c1F [Example 577] | 6.30 to 7.00
18 | CCCCOc1c(C2=CCC(C)(C)CC2)ccc(-c2nc(S(=O)(=O)Nc3cc(F)c(C(=O)O)cc3OC)cs2)c1F [Example 578] | 6.30 to 7.00
19 | CCCOc1c(C2CCC(C)(C)CC2)ccc(-c2nc(S(=O)(=O)Nc3cc(F)c(C(=O)O)cc3OC)cs2)c1F [Example 579] | 6.30 to 7.00
20 | COCCOc1c(C2CCC(C)(C)CC2)ccc(-c2nc(S(=O)(=O)Nc3cc(F)c(C(=O)O)cc3OC)cs2)c1F [Example 580] | 6.30 to 7.00
21 | CCCCOc1c(C2CCC(C)(C)CC2)ccc(-c2nc(S(=O)(=O)Nc3cc(F)c(C(=O)O)cc3OC)cs2)c1F [Example 581] | 6.30 to 7.00

Row | SMILES | pIC50
22 | COc1cc(C(=O)O)c(F)cc1NS(=O)(=O)c1csc(-c2ccc(C3=CCC(C)(C)CC3)c(F)c2C(F)F)n1 [Example 582] | > 7.00
23 | COc1cc(C(=O)O)c(F)cc1NS(=O)(=O)c1csc(-c2ccc(C3CCC(C)(C)CC3)c(F)c2C(F)F)n1 [Example 583] | > 7.00
24 | COc1cc(C(=O)O)c(F)cc1NS(=O)(=O)c1csc(-c2ccc(C3=CCC(C(C)C)CC3)c(OC(C)C)c2F)n1 (stereo not drawn) [Example 584] | > 7.00
25 | CCCCOc1c(C2=CCC(C(C)C)CC2)ccc(-c2nc(S(=O)(=O)Nc3cc(F)c(C(=O)O)cc3OC)cs2)c1F (stereo not drawn) [Example 585] | 6.30 to 7.00
26 | COc1cc(C(=O)O)c(F)cc1NS(=O)(=O)c1csc(-c2ccc([C@H]3CC[C@@H](C(C)C)CC3)c(OC(C)C)c2F)n1 [Example 586] | 6.30 to 7.00
27 | COc1cc(C(=O)O)c(F)cc1NS(=O)(=O)c1csc(-c2ccc([C@H]3CC[C@H](C(C)C)CC3)c(OC(C)C)c2F)n1 [Example 587] | > 7.00
28 | CCCCOc1c(F)c(-c2nc(S(=O)(=O)Nc3cc(F)c(C(=O)O)cc3OC)cs2)ccc1[C@H]1CC[C@@H](C(C)C)CC1 [Example 588] | 6.30 to 7.00
29 | CCCCOc1c(F)c(-c2nc(S(=O)(=O)Nc3cc(F)c(C(=O)O)cc3OC)cs2)ccc1[C@H]1CC[C@H](C(C)C)CC1 [Example 589] | 6.30 to 7.00
30 | COc1cc(C(=O)O)c(F)cc1NS(=O)(=O)c1csc(-c2ccc(C3=CCC(C)(C)CC3)cc2C(F)F)n1 [Example 590] | > 7.00
31 | COc1cc(C(=O)O)c(F)cc1NS(=O)(=O)c1csc(-c2ccc(C3CCC(C)(C)CC3)cc2C(F)F)n1 [Example 591] | > 7.00
32 | COc1cc(C(=O)O)c(F)cc1NS(=O)(=O)c1csc(-c2ccc(C3CC4CCC3C4)cc2)n1 (stereo not drawn) [Example 592] | 6.30 to 7.00
33 | COc1cc(C(=O)O)c(F)cc1NS(=O)(=O)c1csc(-c2ccc(C3=CCC(C(C)(C)C)CC3)c(OC(C)C)c2F)n1 (stereo not drawn) [Example 593] | > 7.00
34 | COc1cc(C(=O)O)c(F)cc1NS(=O)(=O)c1csc(-c2ccc(C3=CCC(C(C)(C)C)CC3)c(F)c2C)n1 (stereo not drawn) [Example 594] | > 7.00
35 | COc1cc(C(=O)O)c(F)cc1NS(=O)(=O)c1csc(-c2ccc([C@H]3CC[C@@H](C(C)(C)C)CC3)c(F)c2C)n1 [Example 595] | 6.30 to 7.00
36 | COc1cc(C(=O)O)c(F)cc1NS(=O)(=O)c1csc(-c2ccc([C@H]3CC[C@H](C(C)(C)C)CC3)c(F)c2C)n1 [Example 596] | > 7.00
37 | COc1cc(C(=O)O)c(F)cc1NS(=O)(=O)c1csc(-c2ccc([C@H]3CC[C@@H](C(C)(C)C)CC3)c(OC(C)C)c2F)n1 [Example 597] | > 7.00
38 | COc1cc(C(=O)O)c(F)cc1NS(=O)(=O)c1csc(-c2ccc([C@H]3CC[C@H](C(C)(C)C)CC3)c(OC(C)C)c2F)n1 [Example 598] | 6.30 to 7.00
39 | COc1cc(C(=O)O)c(F)cc1NS(=O)(=O)c1csc(-c2ccc(C3=CCC(C(F)(F)F)CC3)c(F)c2C)n1 (stereo not drawn) [Example 599] | > 7.00
40 | COc1cc(C(=O)O)c(F)cc1NS(=O)(=O)c1csc(-c2ccc(C3=CCC(C(F)(F)F)CC3)c(OC)c2F)n1 (stereo not drawn) [Example 600] | > 7.00
41 | COc1cc(C(=O)O)c(F)cc1NS(=O)(=O)c1csc(-c2ccc(C3=CCC(C(F)(F)F)CC3)cc2C(F)(F)F)n1 (stereo not drawn) [Example 601] | > 7.00
42 | COc1cc(C(=O)O)c(F)cc1NS(=O)(=O)c1csc(-c2ccc([C@H]3CC[C@@H](C(F)(F)F)CC3)c(F)c2C)n1 [Example 602] | > 7.00

Row | SMILES | pIC50
43 | COc1cc(C(=O)O)c(F)cc1NS(=O)(=O)c1csc(-c2ccc([C@H]3CC[C@H](C(F)(F)F)CC3)c(F)c2C)n1 [Example 603] | > 7.00
44 | COc1cc(C(=O)O)c(F)cc1NS(=O)(=O)c1csc(-c2ccc([C@H]3CC[C@H](C(F)(F)F)CC3)c(OC)c2F)n1 [Example 605] | > 7.00
45 | COc1cc(C(=O)O)c(F)cc1NS(=O)(=O)c1csc(-c2ccc([C@H]3CC[C@@H](C(F)(F)F)CC3)cc2C(F)(F)F)n1 [Example 606] | > 7.00
46 | COc1cc(C(=O)O)c(F)cc1NS(=O)(=O)c1csc(-c2ccc([C@H]3CC[C@H](C(F)(F)F)CC3)cc2C(F)(F)F)n1 [Example 607] | > 7.00
47 | COc1cc(C(=O)O)ccc1NS(=O)(=O)c1csc(-c2ccc([C@H]3CC[C@@H](C(F)(F)F)CC3)cc2)n1 [Example 608] | 6.30 to 7.00
48 | COc1cc(C(=O)O)ccc1NS(=O)(=O)c1coc(-c2ccc([C@H]3CC[C@@H](C(F)(F)F)CC3)cc2)n1 [Example 609] | > 7.00
49 | COc1cc(C(=O)O)ccc1NS(=O)(=O)c1coc(-c2ccc([C@H]3CC[C@H](C(F)(F)F)CC3)cc2)n1 [Example 610] | 6.30 to 7.00
50 | COc1cc(C(=O)O)c(F)cc1NS(=O)(=O)c1cccc(-c2ccc([C@H]3CC[C@H](C(C)(C)C)CC3)cc2)c1F [Example 612] | > 7.00
51 | COc1cc(C(=O)O)c(F)cc1NS(=O)(=O)c1ncc(-c2ccc(F)cc2)s1 [Example 614] | > 7.00
52 | CC[C@H]1CC[C@H](c2ccc(-c3cnc(S(=O)(=O)Nc4cc(F)c(C(=O)O)cc4OC)s3)cc2)CC1 [Example 615] | 6.30 to 7.00
53 | COc1cc(C(=O)O)c(F)cc1NS(=O)(=O)c1ncc(-c2ccc(C3CCCCC3)cc2)s1 [Example 616] | 6.30 to 7.00
54 | COc1cc(C(=O)O)c(F)cc1NS(=O)(=O)c1coc(-c2ccc(C3=CCC4(CC3)OCCO4)cc2)n1 [Example 617] | > 7.00
55 | COc1cc(C(=O)O)c(F)cc1NS(=O)(=O)c1coc(-c2ccc(C3CCC4(CC3)OCCO4)cc2)n1 [Example 618] | > 7.00
56 | COc1cc(C(=O)O)c(F)cc1NS(=O)(=O)c1csc(-c2ccc([C@H]3CC[C@@H](C(C)C)CC3)cc2C(F)(F)F)n1 [Example 619] | 6.30 to 7.00
57 | COc1cc(C(=O)O)c(F)cc1NS(=O)(=O)c1csc(-c2ccc([C@H]3CC[C@H](C(C)C)CC3)cc2C(F)(F)F)n1 [Example 620] | > 7.00
58 | COc1cc(C(=O)O)c(F)cc1NS(=O)(=O)c1ncc(-c2ccc([C@H]3CC[C@H](C(F)(F)F)CC3)cc2)s1 [Example 621] | 6.30 to 7.00
59 | COc1cc(C(=O)O)c(F)cc1NS(=O)(=O)c1cc(-c2ccc(C3CCCCC3)cc2)ccn1 [Example 622] | 6.00 to 6.30
60 | COc1cc(C(=O)O)c(F)cc1NS(=O)(=O)c1coc(-c2ccc([C@H]3CC[C@@H](O)CC3)cc2)n1 [Example 623] | 6.30 to 7.00
61 | COc1cc(C(=O)O)c(F)cc1NS(=O)(=O)c1csc(-c2ccc(CC3CCCCC3)cc2)n1 [Example 624] | 6.30 to 7.00
62 | COc1cc(C(=O)O)c(F)cc1NS(=O)(=O)c1csc(-c2ccc(CCC(C)C)cc2)n1 [Example 625] | 6.30 to 7.00
63 | COc1cc(C(=O)O)c(F)cc1NS(=O)(=O)c1cnc(-c2ccc([C@H]3CC[C@@H](C)CC3)cc2)s1 [Example 626] | 6.30 to 7.00
